A word on the solubility: it is the concentration that dissolves in the medium under given conditions.

Holding throughout (assay type): physicochemical
A short description of data set [1]: Excipient compatibility study with Compound A sesquifumarate. Particulars: for Change in appearance, XRPD or DSC: 8 weeks 25° C./60% RH or 4 weeks 40° C./75% RH. An excerpt: The first activity in developing a tablet formulation was selection of excipients. The main purpose of the excipient compatibility study was to evaluate changes in related substances, specifically Impurity A (relative retention time [RRT]˜0.98). […] However, formation of this degradant is not possible in product containing Compound A citrate, as it is formed by reaction of the sesquifumarate drug substance with the double bond in fumaric acid. A secondary purpose of the compatibility study was to assess changes in Compound A assay and physical properties. Even though formation of Impurity A is not possible for Compound A citrate, chemical and physical results of this study were still used to guide tablet excipient selection.
Common excipients were evaluated as part of the excipient compatibility study. Samples were incubated at 25° C./60% RH long-term condition as well as a 40° C./75% RH accelerated condition. Individual vials were removed for analysis at 0, 4, and 8 weeks. Samples were tested for appearance, Compound A sesquifumarate assay and related substances, X-ray powder diffraction (XRPD), and differential scanning calorimetry (DSC) at T-0 and 4 weeks for both long-term and accelerated conditions, and 8 weeks for the long-term condition. At 8 weeks, the accelerated condition samples were tested for Compound A sesquifumarate assay and related substances only. Assay and related substances were tested by reversed-phase ultra-performance liquid chromatography (RP-UPLC), with adjusted sample preparation to accommodate small sample amounts. Vials of Compound A sesquifumarate alone were used as controls.

Data set [2] in a line: Aqueous solubility of Compound A salts. How it is done:
Solubility of Compound A citrate was determined in 3 different types of matrices: unbuffered water, citrate-buffered solutions from pH 3 to 6, and formulations consisting of citrate, advantame, methylparaben sodium, potassium sorbate, and sodium chloride at pH ranging from 3 to 6. Solubility in unbuffered water at ambient temperature was 38.5 mg/mL.
The target pH was reassessed when the F3 formulation was developed. Compound A citrate solubility studies were performed initially in simple buffered solutions to assess solubility trends as a function of pH. […] The target concentration of Compound A was therefore changed to 40 mg/mL as a compromise between drug substance and preservatives dissolution rate and stability.

The nature of data set [3]: Solution stability studies at accelerated conditions, counterion adduct (Impurity A). Conditions: fumarate reacts with the pyrimidine ring; in solution and solid API. An excerpt: Compound A monocitrate monohydrate has at least two advantageously and unexpected characteristics. […] Second, in the manufacturing process, Compound A fumarate requires a separate slurrying step which results in a solvate with an organic solvent. Compound A monocitrate monohydrate salt is isolated directly from ethanol:water, no slurrying step is required. […] Additionally, the Compound A monocitrate forms a monohydrate instead of a solvate with one or more organic molecules.
Although this degradation pathway is more accelerated in solution it was also observed in the solid API. Formation of Impurity A was the reason why Compound A sesquifumarate API and drug product were stored at refrigerated temperatures.

The nature of data set [4]: Solution stability of Compound A sesquifumarate at 25° C. and 40° C. Particulars: for Appearance / Compound A Sesquifumarate Purity (Average % area) / Impurity A (Average % area) / pH: 50 mg/mL formulation. How it is done:
The initial F1 and F2 formulations utilized Compound A sesquifumarate. The pH stability of Compound A sesquifumarate solutions was studied in water at pH 5.0, 5.5, and 6.0 over 4 weeks at 25° C. and 40° C. The desired concentration of 50 mg/mL was soluble at all pH values, although Compound A dissolution occurred more rapidly at lower pH. There was a single major degradant, designated as Impurity A (relative retention time [RRT]˜0.98).
Stability of formulations containing Compound A sesquifumarate was studied at 50 mg/mL in a formulation consisting of 0.07% advantame, 20 mM citrate, 1% grape flavor (FONA), 1% sodium chloride, and 0.02% propyl paraben at pH 6.5. Stability was measured over 4 weeks in glass vials at the accelerated condition of 25° C. Stability of the same formulation but at […] was also studied at the supra-accelerated condition of 40° C. These studies were conducted prior to preservative effectiveness testing and therefore used propyl paraben instead of the methylparaben sodium:potassium sorbate combination used in the final formulation.

Data set [5] is described as follows: Scale-up preparation of Form C with DVS. How it is done:
Approximately 300 mg of Form A was weighed into a 4 mL glass vial and 2.5 mL of MeCN was added slowly to make a slurry. The sample vial was kept at 50° C. with stirring for 3 days. After 3 days, slurry material was isolated and dried at 40° C. with a N2 bleed.

Data set [6] can be described thus: Form C screening experiments.
The mark [7] stands for this setting: Exp. 1/5: reactive crystallization, material 166 mg, citric acid 51 mg, MeCN 1.0 mL, RT.
Setting [8] is: Exp. 2/6: reactive crystallization, material 166 mg, citric acid 51 mg, EtOAc 1.0 mL, RT.
Setting [9] is: Exp. 3/7: reactive crystallization, material 166 mg, citric acid 51 mg, MeCN 1.0 mL, 50 °C.
Setting [10] is: Exp. 4/8: reactive crystallization, material 166 mg, citric acid 51 mg, EtOAc 1.0 mL, 50 °C.

As to `CCN(C(=O)c1cc(F)ccc1Oc1cncnc1N1CC2(CCN(C[C@H]3CC[C@H](NS(=O)(=O)CC)CC3)CC2)C1)C(C)C.CCN(C(=O)c1cc(F)ccc1Oc1cncnc1N1CC2(CCN(C[C@H]3CC[C@H](NS(=O)(=O)CC)CC3)CC2)C1)C(C)C.O=C(O)/C=C/C(=O)O.O=C(O)/C=C/C(=O)O.O=C(O)/C=C/C(=O)O` [Compound A sesquifumarate], the “Change in appearance, XRPD or DSC” value in data set [1] (binary mixtures with five fillers) is given as “No change”; in data set [1] (four disintegrants) it was “No change”; in data set [1] (glidant and lubricants), “No change”; in data set [1] (three binders), “No change”; in data set [1] (two alkalizers) it was “No change”. Besides, the “Impurity A” value in data set [1] (control sample and filler mixtures) was “increased in both control sample and excipient mixtures”. The “Trends in assay or related substances” value in data set [1] (four disintegrants) is “No trends”; in data set [1] (glidant and lubricants) it was “No trends”; in data set [1] (three binders) it was “No trends”; in data set [1] (two alkalizers), “No trends”. Also, the “Impurity A formation” value in data set [1] (with Avicel PH 101, Avicel PH113, Avicel DG) was “did not increase formation of Impurity A”; in data set [1] (with polyols mannitol and sorbitol), “accelerate the degradant formation”; in data set [4] (water at pH 5.0, 5.5, 6.0, 4 weeks, 25° C. and 40° C.), “increased in a temperature- and time-dependent manner”. Besides, the “Biopharmaceutical Classification System solubility definition” value in data set [2] was “highly soluble”. The pH of solution entry in data set [2] (50 mg/mL Compound A solution in water) is “approximately 3.5”. In addition, the “Chemical degradation forming impurity A” value in data set [3] is “subject to a chemical degradation”. The Appearance entry was “Clear” in data set [4] (25° C., 1 week); “Clear” in data set [4] (25° C., 2 weeks); “Clear” in data set [4] (25° C., 4 weeks); “Clear” in data set [4] (25° C., time 0); “Clear” in data set [4] (40° C., 1 week); “Clear” in data set [4] (40° C., 2 weeks). Further, the Appearance result in data set [4] (40° C., 4 weeks) is on record as “Clear”; in data set [4] (40° C., time 0), “Clear”. Further, the “Compound A Sesquifumarate Purity (Average % area)” value in data set [4] (25° C., 1 week) is 99.77 % area; in data set [4] (25° C., 2 weeks), 99.78 % area; in data set [4] (25° C., 4 weeks), 99.78 % area; in data set [4] (25° C., time 0) it was 99.78 % area; in data set [4] (40° C., 1 week) it was 99.75 % area; in data set [4] (40° C., 2 weeks), 99.68 % area. For the same molecule, the “Compound A Sesquifumarate Purity (Average % area)” value in data set [4] (40° C., 4 weeks) came to 99.58 % area; in data set [4] (40° C., time 0) it was 99.77 % area. For the same molecule, the “Impurity A (Average % area)” value in data set [4] (25° C., 1 week) stood at 0.14 % area; in data set [4] (25° C., 2 weeks), 0.13 % area; in data set [4] (25° C., 4 weeks), 0.14 % area; in data set [4] (25° C., time 0), 0.14 % area; in data set [4] (40° C., 1 week), 0.17 % area; in data set [4] (40° C., 2 weeks), 0.24 % area. For the same molecule, the “Impurity A (Average % area)” value in data set [4] (40° C., 4 weeks) is 0.34 % area; in data set [4] (40° C., time 0) it was 0.14 % area. In addition, the pH in data set [4] (25° C., 1 week) is on record as 6.6; in data set [4] (25° C., 2 weeks) it was 6.6; in data set [4] (25° C., 4 weeks), 6.6; in data set [4] (25° C., time 0), 6.5; in data set [4] (40° C., 1 week), 6.2; in data set [4] (40° C., 2 weeks), 6.2. In addition, the pH was 6.3 in data set [4] (40° C., 4 weeks) and 6.2 in data set [4] (40° C., time 0). Also, the solubility in data set [4] (water at pH 5.0, 5.5 and 6.0) is recorded as at least 50 mg/mL.
Turning to `CC#N.CCN(C(=O)c1cc(F)ccc1Oc1cncnc1N1CC2(CCN(CC3CCC(NS(=O)(=O)CC)CC3)CC2)C1)C(C)C.O=C(O)CC(O)(CC(=O)O)C(=O)O` (stereo not shown) [Compound A citrate Form C], the entries for the “DVS (weight gain between 30%-80% RH)” value in data set [5] (1st adsorption cycle) and in data set [5] (2nd adsorption cycle) were 1.6% and 6.1%, respectively. In addition, in data set [5] (after DVS), the “Post DVS form” value is on record as “changed to Form-A”.
Turning to `CCN(C(=O)c1cc(F)ccc1Oc1cncnc1N1CC2(CCN(C[C@H]3CC[C@H](NS(=O)(=O)CC)CC3)CC2)C1)C(C)C` [FB-1], the “Crystal Form” value in data set [6] (setting [7]) is reported as “Form A, w/pattern shift”; in data set [6] (setting [8]) it was “FB-1 w/extra peaks”; in data set [6] (setting [9]), “Form A → Form C”; in data set [6] (setting [10]) it was “Essentially Form C”; in data set [6] (Exp. 11: slurry conditioning, 166 mg, no citric acid, MeCN 1.0 mL, 50 °C), “FB-1”; in data set [6] (Exp. 12: slurry conditioning, 166 mg, no citric acid, EtOAc 1.0 mL, 50 °C) it was “FB-1”.
On to `CCN(C(=O)c1cc(F)ccc1Oc1cncnc1N1CC2(CCN(C[C@H]3CC[C@H](NS(=O)(=O)CC)CC3)CC2)C1)C(C)C` [FB-2], for which the “Crystal Form” value in data set [6] (setting [7]) is reported as “Form A, w/pattern shift”; in data set [6] (setting [8]), “FB-2 w/extra peaks”; in data set [6] (setting [9]), “Form A → Form C”; in data set [6] (setting [10]) it was “Form A”; in data set [6] (Exp. 9: slurry conditioning, 166 mg, no citric acid, MeCN 1.0 mL, RT) it was “FB-2”; in data set [6] (Exp. 10: slurry conditioning, 166 mg, no citric acid, EtOAc 1.0 mL, RT), “FB-2”. Besides, the “Crystal Form” value is listed as “Form C” in data set [6] (Exp. 13: reactive crystallization, citric acid 15 mg, MeCN 0.5 mL, RT (Form C in MeCN; Hazy → FB + Acid)); “Form C” in data set [6] (Exp. 14: reactive crystallization, citric acid 15 mg, MeCN 0.5 mL, RT (FB + Acid in MeCN → CL → Form C)); “Form C” in data set [6] (Exp. 15: citric acid 30 mg, MeCN 0.5 + 1.5 mL, RT, 1:2 of FB:Acid).

For the origin of these results see patent US20250170132A1, “SALTS AND POLYMORPHIC FORMS OF MENIN INHIBITORS AND PHARMACEUTICAL COMPOSITIONS THEREOF” (Syndax Pharmaceuticals, Inc., priority 2023, published 2025).
